The source of these data is patent US7442680B2, “Inotropic and diuretic effects of GLP-1 and GLP-1 agonists” (Amylin Pharmaceuticals, Inc., priority 1998, dated 2008).

For assay [1] the following is noted: administered through the jugular vein; cited from earlier work.
For assay [2] the following is noted: cited from earlier work.
Assay [3] relates to Harlan Sprague Dawley rats. The assay can be described thus: Arterial blood pressure and dP/dt in conscious rats by telemetry. It counts as in vivo, rat. To be noted: single intraperitoneal injection. The source says: Insertion of Transducers: Male, Harlan Sprague Dawley rats were anesthetized with halothane and the abdominal aorta exposed after laparotomy. According to procedures detailed in the “Pressure Telemetry” manual from Data Sciences Inc., pressure transducer/transmitters were secured in place on the abdominal wall with the catheter tip in the abdominal aorta ˜2 mm above bifurcation. Following closure, the animals then recovered to allow at least 7 days of stable recordings. Baseline data were collected during the 7+days after surgery.
Measurement of blood pressure and dP/dt: After obtaining a stable baseline, rats received an intraperitoneal (ip) injection of GLP-1, exendin or vehicle alone (NaCl). The transmitted signals were recorded via telemetry and stored on a personal computer. Rate of pressure change, dP/dt, was calculated by software provided by Data Sciences.
GLP-1: Animals received a single intraperitoneal (ip) injection of saline or GLP-1 (100 μl), n=7-8.

Assay [4] concerns Harlan Sprague Dawley rats. Nature of the assay: Diuretic effects of GLP-1 or exendin in anesthetized rats (urine flow, sodium excretion, urinary potassium). Type of assay: in vivo, rat. The settings on record: intravenous bolus. As to the method:
In Vivo Studies in Anesthetized rats: Male, Harlan Sprague Dawley rats were housed at 23±1° C. in a 12:12 hour light:dark cycle (experiments being performed during the light cycle) and were fed and watered ad libitum (Diet LM-485, Teklad, Madison, Wis.). Animals weighing 325-375 gms were fasted for ˜20 hours prior to experimentation.
Surgical preparation: The preparation used here was as described in Young et al., (Drug Dev Res. 37:231-248, 1996), but modified by the addition of unilateral ureteral cannulation. Anesthesia was induced with 5% halothane, maintained with 2% halothane during surgery and with 0.7 to 1% thereafter. […] Colonic temperature was measured and controlled using a thermistor probe/controller (Model 73A, YSI, Yellow Springs, Ohio) and a heated operating table. Signals for mean arterial pressure were periodically sampled at 1 Hz with 12 bit precision (DataTranslation DT2801A) and recorded (Labtech Notebook).
Observations are expressed as the percent of baseline, defined as the mean of measurements made in the 30 min prior to starting peptide or vehicle infusion. Data are expressed as mean±SEM. n=5-6.
Measurements: Samples of arterial blood (160 μl) were collected periodically and samples of urine were collected every 15 min. […] Unilateral urine flow was measured by weighing the 15-minute output of the cannulated ureter. […]

Like-named read-outs stand apart in the source and are kept apart here. Where no end group is shown, it is not given here.

Take “His Ala Glu Gly Thr Phe Thr Ser Asp Val Ser Ser Tyr Leu Glu Gly Gln Ala Ala Lys Glu Phe Ile Ala Trp Leu Val Lys Gly Arg-NH2 (HAEGTFTSDVSSYLEGQAAKEFIAWLVKGR-NH2; listed as Homo sapiens) [GLP-1]”: the “systolic and diastolic blood pressure and heart rate” value in assay [1] is “increase”. Moreover, in assay [2] (intracerebroventricular administration), the diuretic effect entry was “diuretic, antidypsogenic effect”. Further, the diuretic effect result in assay [2] (peripheral, intraperitoneal injection) was “did not have this effect”. Also, in assay [3], the “cardiac contractility (dP/dt)” value is “increase” and the mean arterial pressure entry is recorded as “increase”. Further, the sodium excretion entry in assay [4] is given as “increased”.
